# From US10294202B2, “Pyrrolidinones as herbicides” (FMC Corporation, priority 2013, dated 2019)
# What was measured:
# [1] = tested on: speedwell; assay: Test D pre-/postemergence herbicide test; format: in vivo, Veronica persica; conditions: Preemergence, scale 0 to 100 (0 no effect, 100 complete control)
# In short: (§1)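 Plants were maintained 7 to 21 days in a controlled environment after treatment and then scored visually against controls (0 no effect, 100 complete control). Seeds in silt loam received preemergence sprays, and 1- to 4-leaf plants received postemergence sprays, both formulated in non-phytotoxic solvent with surfactant.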
# [2] = tested on: mustard, wild; assay: Test D pre-/postemergence herbicide test; format: in vivo, Sinapis arvensis; conditions: Preemergence; for Plant response rating, Mustard, Wild: scale 0 to 100 (0 no effect, 100 complete control)
# In short: as §1
# [3] = tested on: radish, wild; assay: Test D pre-/postemergence herbicide test; format: in vivo, Raphanus raphanistrum; conditions: Preemergence, scale 0 to 100 (0 no effect, 100 complete control)
# In short: as §1
# [4] = tested on: corn; assay: Test E preemergence herbicide test; format: in vivo, Zea mays; design: key: 0 = no effect, 100 = complete control
# In short: (§2)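 Seeds sown in silt loam soil received preemergence treatment with compound in a non-phytotoxic solvent mixture containing surfactant. After 21 days in the greenhouse, plants were visually rated against untreated controls on a 0 (no effect) to 100 (complete control) scale.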
# [5] = tested on: ryegrass, Italian; assay: Test E preemergence herbicide test; format: in vivo, Lolium multiflorum; design: key: 0 = no effect, 100 = complete control
# In short: as §2
# [6] = tested on: kochia; assay: Test E preemergence herbicide test; format: in vivo, Kochia scoparia; design: key: 0 = no effect, 100 = complete control
# In short: as §2
compound,measurement,setting,value
O=C1NC[C@H](c2cccc(C(F)(F)F)c2)[C@H]1C(=O)Nc1cccc(F)c1F [Compound 206],"Plant response rating, Speedwell",[1]; 62 g ai/ha,25
same,"Plant response rating, Speedwell",[1]; 125 g ai/ha,65
same,"Plant response rating, Speedwell",[1]; 31 g ai/ha,0
same,"Plant response rating, Speedwell",[1]; 250 g ai/ha,90
same,"Plant response rating, Mustard, Wild",[2]; 62 g ai/ha,0
same,"Plant response rating, Mustard, Wild",[2]; 125 g ai/ha,0
same,"Plant response rating, Mustard, Wild",[2]; 31 g ai/ha,0
same,Plant response rating,"[2]; 250 g ai/ha, Mustard, Wild, scale 0 to 100",75
same,"Plant response rating, Radish, Wild",[3]; 62 g ai/ha,25
same,"Plant response rating, Radish, Wild",[3]; 125 g ai/ha,30
same,"Plant response rating, Radish, Wild",[3]; 31 g ai/ha,25
same,"Plant response rating, Radish, Wild",[3]; 250 g ai/ha,30
same,"Plant response rating, Corn",[4]; 31 g ai/ha,0
same,"Plant response rating, Corn",[4]; 62 g ai/ha,50
same,"Plant response rating, Corn",[4]; 125 g ai/ha,40
same,"Plant response rating, Corn",[4]; 250 g ai/ha,70
same,"Plant response rating, Ryegrass, Italian",[5]; 31 g ai/ha,0
same,"Plant response rating, Ryegrass, Italian",[5]; 62 g ai/ha,35
same,"Plant response rating, Ryegrass, Italian",[5]; 125 g ai/ha,80
same,"Plant response rating, Ryegrass, Italian",[5]; 250 g ai/ha,65
same,"Plant response rating, Kochia",[6]; 31 g ai/ha,0
same,"Plant response rating, Kochia",[6]; 62 g ai/ha,0
same,"Plant response rating, Kochia",[6]; 125 g ai/ha,50
same,"Plant response rating, Kochia",[6]; 250 g ai/ha,80
